Each block holds one molecule with its values, some of them ahead of it.
Assays:
[1] = system: P388; assay: Antiproliferative activity against mouse P388 cells by MTT assay; type: functional, cell-based
[2] = system: PA-1; assay: Antiproliferative activity against human PA1 cells by MTT assay; type: functional, cell-based
[3] = system: A2780; assay: Antiproliferative activity against human A2780 cells by MTT assay; type: functional, cell-based
[4] = system: Jurkat; assay: Antiproliferative activity against human Jurkat cells by MTT assay; type: functional, cell-based
[5] = system: A549; assay: Antiproliferative activity against human A549 cells by MTT assay; type: functional, cell-based
[6] = system: MDA-MB-231; assay: Antiproliferative activity against human MDA-MB-231 cells by MTT assay; type: functional, cell-based
[7] = system: HCT-8; assay: Antiproliferative activity against human HCT8 cells by MTT assay; type: functional, cell-based
[8] = system: HGC-27; assay: Antiproliferative activity against human HGC27 cells by MTT assay; type: functional, cell-based
[9] = system: A549; assay: Cytotoxicity against human A549 cells after 72 hrs by Trypan blue assay; type: functional
[10] = system: P388; assay: Effect on interstrand cross linking in DNA in mouse P388 cells at 0.1 uM; type: functional
[11] = system: Jurkat; assay: Induction of apoptosis in human Jurkat cells by DAPI assay; type: functional
[12] = system: P388; assay: Cytotoxicity against mouse P388 cells after 72 hrs by Trypan blue assay; type: functional
[13] = system: Jurkat; assay: Cell cycle arrest in human Jurkat cells assessed as accumulation at G2/M phase at 25 uM after 48 hrs; type: functional
[14] = system: A2780; assay: Induction of apoptosis in human A2780 cells by DAPI assay; type: functional
[15] = system: Jurkat; assay: Cell cycle arrest in human Jurkat cells assessed as accumulation at G0/G1 phase at 25 uM after 48 hrs; type: functional
[16] = system: P388; assay: Effect on interstrand cross linking in DNA in mouse P388 cells at 1 uM; type: functional
[17] = system: PA-1; assay: Cytotoxicity against human PA1 cells after 72 hrs by Trypan blue assay; type: functional
[18] = system: A549; assay: Cell cycle arrest in human A549 cells assessed as accumulation at G2/M phase at 6.25 uM after 48 hrs; type: functional
[19] = system: MDA-MB-231; assay: Stimulation of p53 oncoprotein expression in human MDA-MB-231 cells at 0.9 uM; type: functional
[20] = system: Jurkat; assay: Cell cycle arrest in human Jurkat cells assessed as accumulation at G2/M phase at 1.56 uM after 48 hrs; type: functional
[21] = system: A549; assay: Cell cycle arrest in human A549 cells assessed as accumulation at S phase at 6.25 uM after 48 hrs; type: functional
[22] = system: P388; assay: Induction of apoptosis in mouse P388 cells by DAPI assay; type: functional
[23] = system: Jurkat; assay: Cell cycle arrest in human Jurkat cells assessed as accumulation at G0/G1 phase at 1.56 uM after 48 hrs; type: functional
[24] = system: A549; assay: Induction of apoptosis in human A549 cells by DAPI assay; type: functional
[25] = system: Jurkat; assay: Cell cycle arrest in human Jurkat cells assessed as accumulation at S phase at 1.56 uM after 48 hrs; type: functional
[26] = system: HCT-8; assay: Cytotoxicity against human HCT8 cells after 72 hrs by Trypan blue assay; type: functional
[27] = system: MDA-MB-231; assay: Cytotoxicity against human MDA-MB-231 cells after 72 hrs by Trypan blue assay; type: functional
[28] = system: Jurkat; assay: Cytotoxicity against human Jurkat cells after 72 hrs by Trypan blue assay; type: functional
[29] = Cytotoxicity against human H1299 cells after 72 hrs by Trypan blue assay; type: functional, NCI-H1299
[30] = system: A549; assay: Stimulation of p53 oncoprotein expression in human A549 cells at 6 uM after 72 hrs; type: functional
[31] = system: Jurkat; assay: Cell cycle arrest in human Jurkat cells assessed as accumulation at S phase at 6.25 uM after 48 hrs; type: functional
[32] = system: Jurkat; assay: Cell cycle arrest in human Jurkat cells assessed as accumulation at S phase at 25 uM after 48 hrs; type: functional
[33] = system: HCT-8; assay: Induction of apoptosis in human HCT8 cells by DAPI assay; type: functional
[34] = system: PA-1; assay: Stimulation of p53 oncoprotein expression in human PA1 cells at 1.6 uM; type: functional
[35] = system: A549; assay: Cell cycle arrest in human A549 cells assessed as accumulation at G2/M phase at 25 uM after 48 hrs; type: functional
[36] = system: Jurkat; assay: Cell cycle arrest in human Jurkat cells assessed as accumulation at G2/M phase at 6.25 uM after 48 hrs; type: functional
[37] = system: A549; assay: Cell cycle arrest in human A549 cells assessed as accumulation at G0/G1 phase at 6.25 uM after 48 hrs; type: functional
[38] = system: Jurkat; assay: Cell cycle arrest in human Jurkat cells assessed as accumulation at G0/G1 phase at 6.25 uM after 48 hrs; type: functional
[39] = system: A549; assay: Cell cycle arrest in human A549 cells assessed as accumulation at G0/G1 phase at 1.56 uM after 48 hrs; type: functional
[40] = system: A549; assay: Cell cycle arrest in human A549 cells assessed as accumulation at S phase at 25 uM after 48 hrs; type: functional
[41] = system: NCI-H1299; assay: Induction of apoptosis in human H1299 cells by DAPI assay; type: functional
[42] = system: A2780; assay: Cytotoxicity against human A2780 cells after 72 hrs by Trypan blue assay; type: functional
[43] = system: HGC-27; assay: Induction of apoptosis in human HGC27 cells by DAPI assay; type: functional
[44] = Antiproliferative activity against human H1299 cells by MTT assay; type: functional, cell-based; conditions: NCI-H1299
[45] = system: A549; assay: Cell cycle arrest in human A549 cells assessed as accumulation at S phase at 1.56 uM after 48 hrs; type: functional
[46] = system: MDA-MB-231; assay: Induction of apoptosis in human MDA-MB-231 cells by DAPI assay; type: functional
[47] = system: A549; assay: Cell cycle arrest in human A549 cells assessed as accumulation at G0/G1 phase at 25 uM after 48 hrs; type: functional
[48] = system: HGC-27; assay: Cytotoxicity against human HGC27 cells after 72 hrs by Trypan blue assay; type: functional
[49] = system: A549; assay: Cell cycle arrest in human A549 cells assessed as accumulation at G2/M phase at 1.56 uM after 48 hrs; type: functional
[50] = system: PA-1; assay: Induction of apoptosis in human PA1 cells by DAPI assay; type: functional

IC50 [1]: 145 µM
IC50 [3]: 360 µM
IC50 [4]: 172 µM
Structure (SMILES): O=C(O)c1ccc(/C=C(\C(=C/c2ccc(C(=O)O)c3ccccc23)[N+](=O)[O-])[N+](=O)[O-])c2ccccc12
IC50 [2]: 129 µM

IC50 [1]: 2.1 µM
IC50 [5]: 14.3 µM
IC50 [6]: 9.3 µM
IC50 [3]: 2 µM
IC50 [7]: 9.8 µM
IC50 [4]: 2.8 µM
Structure (SMILES): O=[N+]([O-])C(=C/c1cccc2ccccc12)/C(=C\c1cccc2ccccc12)[N+](=O)[O-]
IC50 [2]: 3.6 µM
IC50 [8]: 9 µM

IC50 [1]: 1.4 µM
IC50 [5]: 6 µM
IC50 [6]: 0.9 µM
IC50 [3]: 2.1 µM
IC50 [7]: 12.7 µM
IC50 [4]: 3.2 µM
Structure (SMILES): COC(=O)/C(=C/C(=C\c1cccc2ccccc12)[N+](=O)[O-])SC
Activity [9]: 46%
Activity [10]: 1.7%
Activity [11]: 14%
Activity [12]: 75%
Activity [13]: 26.4%
Activity [14]: 25%
Activity [15]: 51.2%
Activity [16]: 3.5%
Activity [17]: 22%
Activity [18]: 18%
Activity [19]: 2%
Activity [20]: 18.6%
Activity [21]: 33%
Activity [22]: 27%
Activity [23]: 31.1%
Activity [24]: 60%
Activity [25]: 50.3%
Activity [26]: 10%
Activity [27]: 16%
IC50 [2]: 1.6 µM
Activity [28]: 67%
Activity [29]: 14%
Activity [30]: 2%
Activity [31]: 38.3%
Activity [32]: 22.4%
Activity [33]: 5%
Activity [34]: 2%
Activity [35]: 36.5%
Activity [36]: 20.4%
Activity [37]: 49%
Activity [38]: 41.3%
Activity [39]: 46.5%
Activity [40]: 22.5%
IC50 [8]: 2.1 µM
Activity [41]: 2%
Activity [42]: 55%
Activity [43]: 7%
IC50 [44]: 2.8 µM
Activity [45]: 36.9%
Activity [46]: 4%
Activity [47]: 41.2%
Activity [48]: 21%
Activity [49]: 16.6%
Activity [50]: 11%

Reference: ChEMBL document CHEMBL1140763, “Design, synthesis, and in vitro evaluation of new naphthylnitrobutadienes with potential antiproliferative activity: toward a structure/activity correlation” (Bioorg Med Chem, 2008)
